Columns and labels:
[1] = tested on: ARPE-19-nic cells; test: De-esterification in cells (HPLC of cell extracts); type: in vitro ADME, human; settings: confluent cells treated with 100 nM for 30 minutes and 2 hours
Experimental: For cell work, confluent ARPE-19-nic cells were treated with 100 nM dye solutions for 30 minutes and 2 hours at 37°C, 5% CO2 in a 12-well plate. After washing the cells with PBS three times, cells were extracted using cell scrappers with the aid of methanol. The cell suspension in methanol was sonicated in a water bath for 5 minutes and was centrifuged at 16,000 g for 15 minutes. The supernatant was transferred to an HPLC vial and methanol was evaporated under a stream of nitrogen. The sample was resuspended in 40 µL of methanol before injecting into the HPLC system. Twenty microliters of the samples were injected with an autosampler. Separation was conducted by 1.1 mL/min isocratic elution with a methanol (80%) and 10 mM sodium phosphate buffer (pH 5.8, 20%) mobile phase on a 250 × 4.6-mm (5 µm) C18 column (Pinnacle II; Restek, Bellefonte, PA) maintained at 40°C. The samples were monitored at an emission wavelength of 580 nm (λex = 550 nm) using a FLD detector and analyzed with Agilent Chemstation software.

[2] = tested on: isolated mitochondria from ARPE-19-nic cells; test: Quantification of dye amounts in isolated mitochondria; type: cell-based, human; settings: 100 nM, 30 minutes; t-test P < 0.0001
[3] = Stability of dyes in media (HPLC); type: in vitro ADME; settings: 100 nM in MEM-Nic + 1% FBS, 37°C, HPLC at 0 and 2 hours
Experimental: Fresh 100 nM RBBE solutions were prepared in MEM-Nic + 1% FBS with 0.2% Tween20. HPLC chromatograms were recorded immediately after making solutions and after incubation at 37°C for 2 hours to determine stability of the ester linkage in media.

[4] = tested on: ARPE-19-nic cells; test: Co-localization with Mito-GFP (confocal and high-resolution live cell imaging); type: cell-based, human; settings: 25 nM, 30 minutes; for cell penetration and association with mitochondria, high-resolution airy scan imaging: live cells
Experimental: ARPE-19-nic cells were seeded at 1.5 × 10^5 cells per well density in 8-well Millicell EZ slides with MEM-Nic + 1% FBS. After 24 hours (60%–70% confluency), cells were transfected with CellLight Mitochondria-GFP using manufacturer's recommended protocol. For co-localization experiments carried out at subconfluent conditions, media containing CellLight Mito-GFP were removed, washed with DPBS and cells were treated with 25 nM dye solutions prepared in MEM-Nic + 1% FBS at 37°C, 5% CO2. After 30 minutes, media containing dye solution was removed and cells were washed three times with DPBS. Cells were mounted with DPBS for confocal laser scanning microscope imaging. An 63× oil lens was used to image cells in green and red channels. For experiments carried out at confluent conditions, transfection was carried out at 60% to 70% confluency and cells were grown to 100% confluency. A 20× lens was used to generate images to compare staining efficiencies.
To analyze RBBE and its association with mitochondria, high-resolution live cell imaging was conducted using a Zeiss LSM880 inverted confocal microscope equipped with a GaAsP detector. All the images were obtained by using a 63× oil objective (30°C oil) in three channels (blue, green, and red) at room temperature. ARPE-19-nic cells were grown in Lab-Tek II chambered no 1.5 German coverslip system for 24 hours before treating with CellLight Mito-GFP overnight followed by a 30-minute treatment of 25 nM RBBE in growth media. After treating the cells with RBBE, cells were washed twice with PBS and nuclei were stained employing a Hoechst stain (1/2000 diluted from a 10 mg/mL stock solution in media) for 10 minutes at room temperature. Subsequently cells were washed twice with PBS and cells were imaged in phenol red free CO2 independent Leibovitz's (1×) media.

[5] = tested on: ARPE-19-nic cells; test: Accumulation experiment with repeated dye additions; type: cell-based, human; settings: 25 nM added 1×, 2× or 3×, 2 hours each
Experimental: Black clear bottomed Costar 96-well plates were pretreated with 0.039 mg/mL collagen I solution prepared in sterilized deionized water (50 µL per well) for 1 hour, aspirated and washed with 100 µL of DPBS. Confluent ARPE-19-nic cells were harvested and seeded at approximately 70,000 cells per well and grown until the cells reached 100% confluency. At the time of confluence (day 0), media were removed from the cells and treated with 100 µL of freshly made dye solutions in MEM-Nic + 1% FBS in amber Eppendorf tubes in dark. After the appropriate incubation time, cells were washed thrice with DPBS, lysed with Qiagen RLT buffer with 0.2% Tween20, and fluorescence was recorded at λex/ λem = 552 nm/558 nm. […] Extracellular levels were measured by transferring 75 µL of the media sitting on top of the cells to a new black, clear bottomed 96-well plate. To the transferred media, 25 µL of Qiagen RLT lysis buffer with 0.2% Tween20 were added and fluorescence was measured as mentioned elsewhere in this article. Intracellular amounts were determined by adding 100 µL of Qiagen RLT lysis buffer with 0.2% Tween20 to the cells that were washed thrice with DPBS. Fluorescence measurements were carried as described. […] After the incubation period, cells were washed three times with DPBS and fluorescence was measured from a plate reader. […]

[6] = tested on: ARPE-19-nic cells; test: Cellular uptake: intracellular and extracellular fluorescence quantification; type: cell-based, human

fluorescence from isolated mitochondria compared with RB-treated cells [2] | stability of the ester in media [3] | intracellular level after multiple doses (accumulation) [5] | cell permeability ([6]; 25 nM) | cell penetration after 24 hours incubation ([6]; 24 hours incubation) | Compound | conversion into the parent form (de-esterification) inside cells [1] | cell penetration and association with mitochondria, high-resolution airy scan imaging [4] | intracellular versus extracellular location of dye ([6]; 25 nM, 2 hours, fluorescence) | co-localization with Mito-GFP labelled mitochondria ([4]; confocal laser scanning microscopy)
increased fluorescence activity | stable in media up to 2 hours | – | – | – | CCCCOC(=O)c1ccccc1-c1c2ccc(=[N+](CC)CC)cc-2oc2cc(N(CC)CC)ccc12 [RBBE, Rhodamine B Butyl Ester] | did not convert into its parent form within 2 hours | able to effectively penetrate into the cells and associated with mitochondria | – | –
– | – | showed no accumulation | cell impermeable | not able to penetrate into the cells | rhodamine B [RB] | – | did not observe any RB | primarily located in the extracellular space | not detected within the cells
